Assay: small volume in vitro release in 50 ml 0.1N HCl
Type: physicochemical
Conditions: 37° C., 150 rpm
Protocol: The formulations were tested for their small volume in vitro release characteristics in 50 ml 0.1N HCl at 37° C. and 150 rpm using the following procedure: III. Instrumentation (or Equivalent) • a. Automated Dissolution System comprising of: • Hanson SR8 Plus Test Station • Hanson Auto Plus Maximiser System Controller • Hanson Auto Plus MultiFill Fraction Collector • b. […] Procedure • Place one weighed capsule in each vessel containing 0.1N HCl and immediately operate the apparatus for 30 min. • Unless otherwise specified, 3 ml samples are withdrawn from each vessel and immediately filtered through PTFE membranes at 15 and 30 min. IV.
The small volume was chosen as a model of the conditions in a fasted stomach.

With CC(C)OC(=O)C(C)(C)Oc1ccc(C(=O)c2ccc(Cl)cc2)cc1 [Micronized Fenofibrate] as the compound, how does the “dissolution under small volume model condition (in words)” value read?
Its value is “no dissolution at all”.

— patent publication US20060222706A1 (priority 2005, published 2006)
